From patent US20170172953A1, “SELF-ASSEMBLING DRUG DELIVERY VEHICLES WITH IONICALLY CROSS-LINKED DRUGS” (WILLIAM MARSH RICE UNIVERSITY, priority 2014, published 2017)
Entries after “also recorded” stand apart in the source; their conditions may differ.

Experiments:
[1] = Parallel plate rheometry of crosslinked SLac peptide hydrogels; type: physicochemical; conditions: drug as crosslinker of 1 w % SLac hydrogel, pH 7.4
Description: Peptide solutions were made by dissolving lyophilized SLac in 298 mM sucrose-water at a concentration of 2 w %, pH 7.4. Hydrogels were constructed by addition of Hank's balanced salt solution (HBSS) at a 1:1 ratio. Multivalent drugs were added at similar concentrations, approximating physiological doses, to SLac solutions with final concentrations of: SLac—0.4 mM (1 w %); concentration of positive lysine charges—0.8 mM; suramin—3.8 mM (0.5 w %) or 0.38 mM (0.05 w %); trypan blue—3.2 mM (0.2 w %); heparin ˜2.78 mM (5 w %); clodronate disodium—3.4 mM; phosphate buffer—38 mM and 5 mM; and 0.9% saline. Negatively charged polyvalent ions in buffer solution facilitated intermolecular ionic interactions with lysine residues, crosslinking the hydrogel. Rheological behavior of peptide hydrogels was determined using an 8 mm parallel plate geometry at a gap of 250 μm. 50 μL of hydrogel was constructed and, within 30 min, placed on stainless steel plates of a rheometer. A frequency sweep (0.1-100 Hz, at constant 1% strain), strain sweep (0-1000%/strain, at 1 Hz) and shear recovery (1% strain for 30 min, 100% strain for 60 s, 1% strain for 30 min) were performed. We ensured the phase angle δ≦90° to ensure no slipping.

[2] = Suramin drug loading and release from MDP hydrogel into HBSS; type: physicochemical
Description: Suramin was dissolved in 0.9% saline and loaded into MDP hydrogel (100 μL of SLac dissolved in 298 mM sucrose+100 μL of drug/saline) in microcentrifuge tubes. 1 mL of release media (HBSS) was added to gels placed in a humidified 5% CO2 cell culture incubator at 37° C. 200 μL aliquots of release media were assayed, with replenishment, daily for 30 days. To determine short term release kinetics, in a separate setup, aliquots were assayed at 1, 2, 4, 8, 12, 24, 48 and 72 hr. Concentration of drug was determined using UV spectrophotometry at 313 nm, n=5. Mass release data were plotted as a function of cumulative release of drug in Sigmaplot. Drug release was modeled using the Korsmeyer-Peppas equation.

Cc1ccc(C(=O)Nc2ccc(S(=O)(=O)O)c3cc(S(=O)(=O)O)cc(S(=O)(=O)O)c23)cc1NC(=O)c1cccc(NC(=O)Nc2cccc(C(=O)Nc3cc(C(=O)Nc4ccc(S(=O)(=O)O)c5cc(S(=O)(=O)O)cc(S(=O)(=O)O)c45)ccc3C)c2)c1 [suramin]
mechanical strength, storage modulus G′ / loss modulus G″ [1]: order of magnitude increase in mechanical strength with increase in concentration; also recorded: an order of magnitude higher G′/G″
mechanism of release ([2]; 1 mg/mL loaded gels): non-Fickian diffusion/Case II transport dependent
release exponent (t) of Korsmeyer-Peppas model ([2]; 1 mg/mL loaded gels): ≈ 1.0
mechanism of release ([2]; 10 mg/mL loaded gels): diffusion dependent
release exponent (t) of Korsmeyer-Peppas model ([2]; 10 mg/mL loaded gels): ≈ 0.5
Maximum cumulative suramin concentration ([2]; high loading): 0.6 mg/mL
Maximum cumulative suramin concentration ([2]; low loading): 0.04 mg/mL
drug release ([2]; over a 20 day period, from SLac-based scaffolds): approximately 50%
retention of drug ionically cross-linked ([2]; over a period of 30 days): up to 40%
drug releasing from hydrogel scaffolds ([2]; over the first 30 days, depending on loading concentration): 40-60%
